In publication PMC11994644, “In vivo quantification of [^11C]BIO-1819578 in non-human primates, a novel radioligand for O-GlcNAcase” (Journal of Cerebral Blood Flow & Metabolism, 2025):
pKd: −log10 of the molar value. “Also recorded” adds a separate entry of the source.

Columns and labels:
OGA = conditions: cited from earlier work
O-GlcNAcase (OGA) = assay: OGA occupancy after pretreatment with Thiamet-G (revisited Lassen plot); format: in vivo, cynomolgus monkey

Structure (SMILES)	pKd (OGA)	occupancy (O-GlcNAcase (OGA); Thiamet-G 10 mg/kg i.v. 45 minutes prior to PET, 2TCM, one NHP) [%]	effect of pretreatment on [^11C]BIO-1819578 distribution volume (VT) (O-GlcNAcase (OGA); Thiamet-G 10 mg/kg i.v., NHP 3)
CC(=O)Nc1ncc(CN2CCC[C@H](N(C)c3ccc(F)cn3)C2)s1 [BIO-1819578]	8.64	–	–
CCN=C1N[C@@H]2[C@@H](O)[C@H](O)[C@@H](CO)O[C@@H]2S1 [Thiamet-G]	–	97.6	reduced the distribution volume in all brain regions; also recorded: decreased in all regions
